Test results reported in patent US6495133B1, “Gliocladium roseum strains useful for the control of fungal pathogens in plants” (priority 1998, dated 2002).

Test system: Pythium aphanidermatum
Experiment: Comparison and compatibility of ACM941 with metalaxyl fungicide, pythium root rot of field pea, field experiments
Assay type: in vivo
Conditions: for Emergence / Yield: Saturn field pea
[1] = average of the two testing years

COCC(=O)N(c1c(C)cccc1C)C(C)C(=O)OC (stereo not drawn) [Metalaxyl, metalaxyl]
Emergence 1997: 44.3 ab %
Yield 1997: 990 bc kg/ha
Emergence 1998: 78.2 a %
Yield 1998: 5757 a kg/ha
increased emergence by [1]: 17.3%
increased yield by [1]: 19.5%
